{"source": "patent US10668047B2", "about": "“Aziridine containing DNA alkylating agents” (priority 2015, dated 2020)", "key": {"[1]": {"experiment": "MTD determination, administered daily for 5 days (preliminary studies for the H460 xenograft model)", "format": "in vivo, nude mice (nu/nu)", "details": "on the basis of weight loss and behavioral signs, female nude mice", "description": "On the basis of the favorable in vitro data for these compounds, their anti-tumor activities in the H460 (NSCLC) human tumor xenograft model were evaluated. H460 cells (lx 10^6) were subcutaneously implanted in the flanks of pathogen-free homozygous female nude mice (nu/nu, Charles River Laboratories). When tumor size reached 100-150 mm^3, animals were randomized to 10 mice per treatment group. All tested compounds were formulated in 5% DMSO, 5% Tween 80 in D5W. The doses of all the compounds were chosen on the basis of preliminary studies to define the MTD of each compound when administered daily for 5 days. On the basis of weight loss and behavioral signs, the MTDs of TH2565 and TH2566 were determined to be 2 mg/kg, respectively. The comparative tumor volume reductions for certain compounds are graphically illustrated in FIGS. 1A-1C."}, "[2]": {"test_system": "H460 non-cell lung cancer human tumor cell line", "experiment": "In vitro human tumor cell line cytotoxicity (proliferation) assay, AlamarBlue", "format": "cell-based", "method_in_brief": "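H460 cells (4×10^3/well) attached for 24 h, then were exposed to compound for 2 hours at 37° C. before washout and 70 hrs further growth in fresh medium. Viable cells were measured by AlamarBlue, and IC50 (50% growth inhibition) was determined relative to media-only control.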"}, "[3]": {"details": "Homo sapiens, NCI-H460, H460 cells, under air, 2 hrs exposure, wash, then 70 hrs growth, read-out: IC50 (air)"}, "[4]": {"details": "Homo sapiens, NCI-H460, H460 cells, under nitrogen, 2 hrs exposure, wash, then 70 hrs growth, read-out: IC50 (N2)"}}, "note": "Like-named read-outs stand apart in the source and are kept apart here.", "data": [{"smiles": "CC(OP(=O)(N1CC1)N1CC1)c1ccc([N+](=O)[O-])cc1", "note": "(single isomer, unassigned) [compound 2566]", "values": [{"measurement": "MTD", "setting": "[1]", "result": 2, "unit": "mg/kg"}, {"measurement": "IC50", "setting": "[2]; read-out: IC50 (N2), H460 cells, under nitrogen, 2 hrs exposure, wash, then 70 hrs growth", "result": 0.1, "unit": "µM"}, {"measurement": "IC50", "setting": "[2]; read-out: IC50 (air), H460 cells, under air, 2 hrs exposure, wash, then 70 hrs growth", "result": 23, "unit": "µM"}]}, {"smiles": "CC(OP(=O)(N1CC1)N1CC1)c1ccc([N+](=O)[O-])cc1", "note": "(single isomer, unassigned) [compound 2565]", "values": [{"measurement": "MTD at 5 days", "setting": "[1]; nude (nu/nu), mouse, in vivo", "result": 2, "unit": "mg/kg"}, {"measurement": "IC50", "setting": "[2]; Homo sapiens, NCI-H460, read-out: IC50 (N2), H460 cells, under nitrogen, 2 hrs exposure, wash, then 70 hrs growth", "result": 0.1, "unit": "µM"}, {"measurement": "IC50", "setting": "[2]; Homo sapiens, NCI-H460, read-out: IC50 (air), H460 cells, under air, 2 hrs exposure, wash, then 70 hrs growth", "result": 18, "unit": "µM"}]}, {"smiles": "CC(OP(=O)(N1CC1)N1CC1)c1ccc([N+](=O)[O-])c(C(F)(F)F)c1", "note": "(stereo not drawn) [compound 2613]", "values": [{"measurement": "IC50", "setting": "[2]; [3]", "result": 26, "unit": "µM"}, {"measurement": "IC50", "setting": "[2]; [4]", "result": 0.3, "unit": "µM"}]}, {"smiles": "C=Cc1cc(C(C)OP(=O)(N2CC2)N2CC2)ccc1[N+](=O)[O-]", "note": "(stereo not drawn) [compound 2776]", "values": [{"measurement": "IC50", "setting": "[2]; [3]", "result": 2.5, "unit": "µM"}, {"measurement": "IC50", "setting": "[2]; [4]", "result": 0.4, "unit": "µM"}]}, {"smiles": "CC(OP(=O)(N1CC1)N1CC1)c1ccc([N+](=O)[O-])c(-n2ncc3ccccc32)c1", "note": "(stereo not drawn) [compound 2767]", "values": [{"measurement": "IC50", "setting": "[2]; [3]", "result": 2.3, "unit": "µM"}, {"measurement": "IC50", "setting": "[2]; [4]", "result": 0.2, "unit": "µM"}]}]}
